The target of series [1] is T1, human MT1-MMP/MMP-14 (catalytic domain) (Homo sapiens, UniProt P50281).
T1 construct: human MT1-MMP/MMP-14 (catalytic domain); purchased Calbiochem (San Diego, CA, USA)
Nature of the series: Inhibition of MMP-14, fluorescence quenched peptide substrate McaPLGL(Dpa)AR-NH2. In kind it is biochemical. To be noted: for effect of 100 μM compound on MMP-14 activity: pre-incubation 0-45 min; for Ki: substrate McaPLGL(Dpa)AR-NH2 4 µM, 30 min pre-incubation at room temperature, calculated from IC50, read-out: Ki ± s.d. MMP-14. On the procedure: (§1) McaPLGL(Dpa)AR-NH2 was used as a substrate for MMP-9 and MMP-14, while McaRPPGFSAFK(Dnp)-OH was used as substrate for ALN, PLN and TLN. The reaction velocities/initial rates (v) were determined at 37 °C, at an excitation wavelength of 320 nm and an emission wavelength of 405 nm with a slit width of 10 nm using either a Perkin Elmer LS 50 Luminescence spectrometer and the FL WinLab Software Package (Perkin Elmer) or a Clario Star microplate reader (CLARIOstar® BMG LABTECH).
(§2) The test compounds were dissolved in 100% DMSO giving a concentration of 10 mM. A fixed substrate concentration of 4.0 µM in a total volume of 100 µL 0.1 M Hepes pH 7.5, 10 mM CaCl2, 0.005% Brij-35 and 1.0% DMSO, were used in all assays, except for ALN where the substrate concentration was 5.0 µM. The fixed enzyme concentrations were as follows; 0.05 nM MMP-9, 1.0 nM MMP-14, 1.4 nM ALN, 0.5 nM PLN and 0.21 nM TLN. Time-dependent inhibitory experiments without and with 100 μM of testing compounds were performed as follows. Compounds were either pre-incubated with the proteases for 15, 30 and 45 min at room temperature and the enzymatic reaction was started by adding the substrate, or not pre-incubated, i.e., the reaction was started by adding the protease to the mixture of substrate and compound. Control tests without compound present were performed in the same way. The reaction was followed for 30 min at 37 °C.
(§3) Enzymes with and without inhibitor were pre-incubated for 30 min at room temperature, and initial rate assays were performed as described above. Assays were performed using a Clario Star microplate reader (CLARIOstar® BMG LABTECH). The IC50 values were calculated in Graph Pad Prism 5 using Equation (1):(1) vi/v0=1/(1+10^(pIC50−pI)) where vi is the enzyme activity in the presence of inhibitor, v0 the activity in the absence of inhibitor, pI = −log [Inhibitor] in M and pIC50 = −log IC50 in M. All experiments were performed in at least triplicate.

The target of series [2] is T2, pseudolysin (PLN) (Pseudomonas aeruginosa, UniProt P14756).
T2 construct: purchased Calbiochem (San Diego, CA, USA)
T2 sequence (P14756 198-498): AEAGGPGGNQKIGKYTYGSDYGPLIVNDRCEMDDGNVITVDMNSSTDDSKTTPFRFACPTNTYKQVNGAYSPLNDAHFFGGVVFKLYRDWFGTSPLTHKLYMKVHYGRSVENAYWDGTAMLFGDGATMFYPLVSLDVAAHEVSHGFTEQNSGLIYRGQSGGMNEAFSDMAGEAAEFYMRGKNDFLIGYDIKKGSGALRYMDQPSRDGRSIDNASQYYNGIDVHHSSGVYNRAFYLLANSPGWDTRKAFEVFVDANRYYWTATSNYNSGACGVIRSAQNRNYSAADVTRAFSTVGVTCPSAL
Nature of the series: Inhibition of pseudolysin (PLN), substrate McaRPPGFSAFK(Dnp)-OH. Type of series: biochemical. As to conditions: for effect of 100 μM compound on PLN activity: pre-incubation 0-45 min. On the procedure: as §1, §2, §3

For series [3] the following is noted: cited from earlier work.
In series [4] the target is T3, thermolysin (TLN) (Bacillus thermoproteolyticus, UniProt P00800).
T3 construct: purchased Calbiochem (San Diego, CA, USA)
T3 sequence (P00800 233-548): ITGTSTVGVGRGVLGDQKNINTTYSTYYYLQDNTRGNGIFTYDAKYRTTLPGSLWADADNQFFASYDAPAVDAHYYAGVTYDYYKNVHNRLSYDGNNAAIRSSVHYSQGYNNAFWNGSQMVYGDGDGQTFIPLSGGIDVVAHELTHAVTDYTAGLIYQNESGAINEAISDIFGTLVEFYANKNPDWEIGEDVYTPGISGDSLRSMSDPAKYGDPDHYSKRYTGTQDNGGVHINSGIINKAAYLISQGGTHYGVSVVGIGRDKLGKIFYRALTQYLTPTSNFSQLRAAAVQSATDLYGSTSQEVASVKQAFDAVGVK
Nature of the series: Inhibition of thermolysin (TLN), substrate McaRPPGFSAFK(Dnp)-OH. Type of series: biochemical. As to conditions: for Ki: substrate McaRPPGFSAFK(Dnp)-OH 4 µM, 30 min pre-incubation at room temperature, calculated from IC50, read-out: Ki ± s.d. TLN; for effect of 100 μM compound on TLN activity: pre-incubation 0-45 min. The procedure:
as §1, §2, §3

Series [5] concerns the target T4, recombinant human MMP-9 (Homo sapiens, UniProt P14780).
T4 construct: made in house; host or cells: Sf9 insect cells
Nature of the series: Inhibition of MMP-9, fluorescence quenched peptide substrate McaPLGL(Dpa)AR-NH2. In kind it is biochemical. To be noted: for Ki: substrate McaPLGL(Dpa)AR-NH2 4 µM, 30 min pre-incubation at room temperature, calculated from IC50, read-out: Ki ± s.d. MMP-9; for effect of 100 μM compound on MMP-9 activity: pre-incubation 0-45 min. On the procedure: The expression and purification of recombinant human full-length proMMP-9 (rpMMP-9) from Sf9 insect cells were performed as described previously. The amount of proMMP-9 was estimated spectrophotometrically at 280 nm using ε280 nm = 114.36 mM^−1 cm^−1 [48]. Activation of the recombinant proMMP-9 was performed with APMA (auto-activation) as described previously. The amount of active MMP-9 was determined by active site titration using galardin also described previously.
as §1, §2, §3

The target in series [6] is T5, aureolysin (ALN) (Staphylococcus aureus, UniProt P81177).
T5 construct: purchased BioCentrum Ltd. (Kraków, Poland)
T5 sequence (P81177 209-509): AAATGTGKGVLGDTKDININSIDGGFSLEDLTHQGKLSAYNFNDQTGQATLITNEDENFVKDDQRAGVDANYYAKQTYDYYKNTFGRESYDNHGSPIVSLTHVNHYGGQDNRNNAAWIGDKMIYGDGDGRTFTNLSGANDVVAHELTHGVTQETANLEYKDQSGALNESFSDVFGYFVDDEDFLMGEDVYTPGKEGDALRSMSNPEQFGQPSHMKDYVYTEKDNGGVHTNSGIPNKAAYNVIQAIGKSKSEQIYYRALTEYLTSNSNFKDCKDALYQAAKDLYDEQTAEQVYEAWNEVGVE
Nature of the series: Inhibition of aureolysin (ALN), substrate McaRPPGFSAFK(Dnp)-OH. Type of series: biochemical. To be noted: for effect of 100 μM compound on ALN activity: pre-incubation 0-45 min. On the procedure:
as §1, §2, §3

Series [7] relates to VIM-2. Details: method as in PMID 32179522. As to conditions: cited from earlier work.
In series [8] the test system is NDM-1. On the set-up: method as in PMID 32179522. As to conditions: cited from earlier work.
Series [9] has as its system Gram-negative pathogens. On the set-up: method as in PMID 32179522. To be noted: cited from earlier work.
The conditions of series [10]: cited from earlier work. The source holds these as a separate data set.

The term Ki denotes the equilibrium dissociation constant of an inhibitor or competing ligand from its target. One may read the Kd as the free concentration of one partner at which half of the binding sites on the other are occupied at equilibrium, for simple one-to-one binding. As a reminder, the IC50 is the concentration needed to halve the response being measured. Read a high IC50 as weaker potency in that assay.

Entries after “also recorded” stand apart in the source; their conditions may differ. Read-outs that look alike come from different tables or passages of the source.

T4 sequence (P14780 107-707 limits assumed): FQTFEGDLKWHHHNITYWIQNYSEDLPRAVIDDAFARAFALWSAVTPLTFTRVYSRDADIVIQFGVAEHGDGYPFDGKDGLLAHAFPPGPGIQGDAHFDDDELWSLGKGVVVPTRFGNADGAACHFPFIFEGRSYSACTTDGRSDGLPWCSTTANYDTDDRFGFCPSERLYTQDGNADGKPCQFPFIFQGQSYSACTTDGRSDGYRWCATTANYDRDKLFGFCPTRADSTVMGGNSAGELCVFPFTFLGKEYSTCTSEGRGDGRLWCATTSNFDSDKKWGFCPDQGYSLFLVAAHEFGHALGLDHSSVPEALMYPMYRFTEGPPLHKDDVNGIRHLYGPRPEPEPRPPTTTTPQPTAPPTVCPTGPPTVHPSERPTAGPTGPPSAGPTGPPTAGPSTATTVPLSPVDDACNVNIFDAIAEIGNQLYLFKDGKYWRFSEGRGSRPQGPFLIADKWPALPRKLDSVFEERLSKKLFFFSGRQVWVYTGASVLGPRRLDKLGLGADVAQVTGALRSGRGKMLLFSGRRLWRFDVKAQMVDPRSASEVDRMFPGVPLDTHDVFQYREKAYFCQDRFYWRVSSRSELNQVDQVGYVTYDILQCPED

`c1ccc(CNCc2ccccn2)nc1` [DPA, di(2-pyridinemethyl)amine, reference compound]: the “effect of 100 μM compound on MMP-14 activity” value (shortened to “effect … on MMP-14 activity”) in [1] is reported as “greatly enhanced”. In [2], the inhibitory constant (Ki) was determined as 4 ± 1 µM and the “effect of 100 μM compound on PLN activity” value (shortened to “effect … on PLN activity”) was “Moderately strong inhibition”. For the same compound, the Kd in [3] (read-out: Kd (zinc-binder)) is ~10 nM.

`NCCc1ccc(NC(=O)CN(CCN(Cc2ccccn2)Cc2ccccn2)Cc2ccccn2)cc1` [Zn45]: the Ki in [1] was 2.5 ± 0.2 µM; in series [2], 2.8 ± 0.9 µM; in series [4], 7 ± 1 µM.

In the case of `COC(=O)c1ccc(CN(Cc2ccccn2)Cc2ccccn2)nc1` [Zn145], the inhibition constant Ki is 1.5 ± 0.1 µM in series [1] and 12 ± 4 µM in series [2].

Take `O=C(O)c1ccc(CN(Cc2ccccn2)Cc2ccccn2)nc1` [Zn146]: the Ki in series [1] was 3.8 ± 0.3 µM; in [5] it was 21 ± 5 µM; in series [6] it was 25 ± 2 µM; in [2], 4 ± 1 µM.

Turning to `CN(C[C@H](O)[C@@H](O)[C@H](O)[C@H](O)CO)C(=O)c1ccc(CN(Cc2ccccn2)Cc2ccccn2)nc1` [Zn148], the Ki in [1] was 8.6 ± 0.7 µM; in [2], 5 ± 2 µM. The “effect of 100 μM compound on ALN activity” value (“effect … on ALN activity” below) in series [6] is given as “no or only a limited effect”. For the same compound, in series [2], the IC50 is 6.07 ± 0.08 µM. For the same compound, the “effect of 100 μM compound on TLN activity” value (from here on “effect … on TLN activity”) in series [4] is listed as “no or only a limited effect”. In addition, the dissociation constant Kd in series [3] (read-out: Kd (zinc)) was 0.001 nM. Besides, the “inactivation of MBL VIM-2” value in series [7] was “irreversible inhibitor”. Also, the “inactivation of MBL NDM-1” value in [8] is given as “irreversible inhibitor”. The “reversal of carbapenem resistance in Gram-negative pathogens” value (shortened to “reversal of carbapenem resistance”) in series [9] is “reverse carbapenem resistance”. Besides, the acute toxicity entry in [10] (female BALB/c mice) was “limited in vivo toxicity”; in [10] (mouse, in vivo), “without acute toxicity”.

In the case of `CC(N)C(=O)NC(C)C(=O)NCCc1ccc(NC(=O)c2ccc(CN(Cc3ccccn3)Cc3ccccn3)nc2)cc1` (stereo not shown) [Zn155], the Ki in [1] is 2.4 ± 0.2 µM; in series [5], 26 ± 6 µM; in [6], 60 ± 6 µM; in series [2] it was 6 ± 2 µM.

As to `O=C(NCCc1ccc(NC(=O)c2ccc(CN(Cc3ccccn3)Cc3ccccn3)nc2)cc1)c1ccc(CN(Cc2ccccn2)Cc2ccccn2)nc1` [Zn175], the Ki in series [5] is 6 ± 2 µM; in series [6], 14 ± 1 µM; in series [2], 7 ± 2 µM.

On to `CC(N)C(=O)NC(C)C(=O)N1CCN(C(=O)c2ccc(CN(Cc3ccccn3)Cc3ccccn3)nc2)CC1` (stereo not shown) [Zn177], for which the values for the Ki in series [1], in [5] and in [2] were 11.2 ± 0.9 µM, 56 ± 14 µM and 11 ± 4 µM, respectively.

Consider `COC(=O)c1ccc(CN(Cc2cccs2)Cc2cccs2)s1` [Zn215], for which the “effect … on MMP-14 activity” value in series [1] is “weak inhibition or lack of inhibition”. Moreover, the “effect … on PLN activity” value in series [2] is “weak inhibition or lack of inhibition”.

For `COC(=O)c1ccc(CN(Cc2cccs2)Cc2cccs2)nc1` [Zn216], in series [1], the “effect … on MMP-14 activity” value is recorded as “weak inhibition or lack of inhibition”. In addition, the “effect … on PLN activity” value in series [2] is on record as “weak inhibition or lack of inhibition”.

As for `CN(C[C@H](O)[C@@H](O)[C@H](O)[C@H](O)CO)C(=O)c1ccc(CN(Cc2ccccc2)Cc2ccccc2)nc1` [Zn222], the “effect … on MMP-14 activity” value in [1] is “weaker binding than Zn148; also recorded: binding was prevented”. In series [5], the “effect of 100 μM compound on MMP-9 activity” value is “weaker binding than Zn148”. Besides, the “effect … on ALN activity” value in [6] is “no effect”. The “effect … on PLN activity” value in [2] is reported as “weaker binding than Zn148”. Besides, the “effect … on TLN activity” value in series [4] is given as “no effect”. Besides, the Kd in series [3] (read-out: Kd (zinc)) is 1000 nM. Besides, in series [7], the “inactivation of MBL VIM-2” value is given as “did not inactivate”. Moreover, the “inactivation of MBL NDM-1” value in [8] is given as “did not inactivate”. Besides, the “reversal of carbapenem resistance” value in series [9] is “lacked the ability to reverse carbapenem resistance”.

As to `CN(C[C@H](O)[C@@H](O)[C@H](O)[C@H](O)CO)C(=O)c1ccc(CN(Cc2ccccc2)Cc2ccccn2)nc1` [Zn223], the “effect … on MMP-14 activity” value in [1] is reported as “weaker binding than Zn148; also recorded: binding was prevented”. For the same compound, the “effect of 100 μM compound on MMP-9 activity” value in series [5] is recorded as “weaker binding than Zn148”. Also, the “effect … on ALN activity” value in series [6] is “no effect”. The “effect … on PLN activity” value in series [2] is recorded as “weaker binding than Zn148”. Also, the “effect … on TLN activity” value in series [4] is “no effect”. Moreover, in series [3] (read-out: Kd (zinc)), the Kd is 100 nM. Besides, in series [7], the “inactivation of MBL VIM-2” value was “reduced capability to inactivate”. In series [8], the “inactivation of MBL NDM-1” value is “reduced capability to inactivate”. Besides, the “reversal of carbapenem resistance” value in [9] was “lacked the ability to reverse carbapenem resistance”.

As for `CC(=O)OC[C@@H](OC(C)=O)[C@@H](OC(C)=O)[C@H](OC(C)=O)[C@H](CN(C)C(=O)c1ccc(CN(Cc2ccccn2)Cc2ccccn2)nc1)OC(C)=O` [Zn224], the values for the Ki in series [1] and in series [2] were 4.5 ± 0.4 µM and 13 ± 4 µM, respectively.

Regarding `CCN(C[C@H](O)[C@@H](O)[C@H](O)[C@H](O)CO)C(=O)c1ccc(CN(Cc2ccccn2)Cc2ccccn2)nc1` [Zn225], the Ki in series [1] was 4.5 ± 0.4 µM; in series [5], 28 ± 7 µM; in series [2], 5 ± 2 µM; in series [4], 9 ± 2 µM.

For `O=C(NCc1ccc(CN(Cc2ccccn2)Cc2ccccn2)nc1)C1OC(O)C(O)C(O)C1O` (stereo not shown) [Zn227], the Ki in series [1] is 4.8 ± 0.4 µM; in series [5], 77 ± 19 µM; in [2] it was 9 ± 3 µM; in series [4], 11 ± 2 µM.

Regarding `O=C(NC[C@H](O)[C@@H](O)[C@H](O)[C@H](O)CO)c1ccc(CN(Cc2ccccn2)Cc2ccccn2)nc1` [Zn230], the Ki was 3.5 ± 0.3 µM in series [1]; 22 ± 6 µM in series [5]; 20 ± 2 µM in series [6]; 1.1 ± 0.3 µM in series [2]; 12 ± 2 µM in series [4].

As to `O=C(O)c1ccc(CN(CCN(Cc2ccccn2)Cc2ccccn2)Cc2ccc(C(=O)O)cn2)nc1` [Zn239], the inhibition constant Ki in series [1] was 6.1 ± 0.5 µM; in series [5] it was 58 ± 14 µM; in series [2], 5 ± 2 µM; in series [4] it was 32 ± 5 µM.

With `COC(=O)Cc1ccc(NC(=O)c2ccc(CN(Cc3ccccn3)Cc3ccccn3)nc2)cc1` [Zn244], the Ki in [1] is 4 ± 0.3 µM; in series [5], 22 ± 6 µM; in series [2] it was 4 ± 1 µM. This compound had an IC50 in series [2] of 4.46 ± 0.05 µM.

The record behind these values is article PMC8746695, “Zinc-Chelating Compounds as Inhibitors of Human and Bacterial Zinc Metalloproteases” (Molecules, 2021).
